Results published in patent publication US9403832B2, “Pyrazolo[1,5-a]pyrimidine-based compounds, compositions comprising them, and methods of their use” (Lexicon Pharmaceuticals, Inc., priority 2012, dated 2016).

Each compound was assayed against T1, AAK1 (Homo sapiens, UniProt Q2M2I8) (assay: P81 filter plate assay). Details: full-length human AAK1, Mu2 substrate, 33P-ATP.
T1 construct: NP_055726.2
Type: biochemical
Description: Compounds were serially diluted into a Labcyte LDV plate (Labcyte, cat#LP-0200) using a Mutiprobe (PerkinElmer) and Biomek FX (Beckman Coulter) so that the highest compound concentration was at 96 μM. Compounds were then pinged (75 nL per well) into a Greiner 384-well reaction plate (Greiner, #781076) using an ECHO 550 Liquid Handler (Labcyte). A total of 12 μl reaction buffer (IMAP buffer containing Tween and DTT, from Molecular Devices) was then added to each well of columns 1 and 13 for the negative controls and 12 μl of 2× AAK1 (0.2 nM full-length human protein, NCBI accession no. NP_055726.2) was added to the remaining wells. Enzyme was then pre-incubated with compound for 10 minutes at RT. Reactions were initiated upon Minitrak (PerkinElmer) addition of 12 μl substrate mix containing 2× Mu2 (0.2 μM, full length human protein), 2× cold ATP (2 μM), and 1.3 μCi of hot ^33P-ATP. […] proceeded for one hour at RT. Meanwhile, Millipore 384-well P81 filter plates (Millipore, catalog #MZPHNOW10) were placed on a plate washer (Zoom ZW, from Titertek) and pre-wet with 50 μl 1% phosphoric acid. Kinase reactions were then stopped upon addition of 24 μl of 2% phosphoric acid to each well and the Minitrak was then used to transfer 40 μl from each well into the pre-wet Millipore 384-well P81 filter plates. Reaction mixtures were incubated for 10 minutes at RT in the P81 plates, followed by washing five times with 100 μl/well of 1% phosphoric acid using the Zoom filter washer. The bottom of each filter plate was sealed followed by addition of 20 μl Microscint 40 to each well, sealing the top of the plates with Flashplate cover, and then waiting one hour until reading on the TopCount (PerkinElmer).

T1 sequence (Q2M2I8 1-863 isoform Q2M2I8-2): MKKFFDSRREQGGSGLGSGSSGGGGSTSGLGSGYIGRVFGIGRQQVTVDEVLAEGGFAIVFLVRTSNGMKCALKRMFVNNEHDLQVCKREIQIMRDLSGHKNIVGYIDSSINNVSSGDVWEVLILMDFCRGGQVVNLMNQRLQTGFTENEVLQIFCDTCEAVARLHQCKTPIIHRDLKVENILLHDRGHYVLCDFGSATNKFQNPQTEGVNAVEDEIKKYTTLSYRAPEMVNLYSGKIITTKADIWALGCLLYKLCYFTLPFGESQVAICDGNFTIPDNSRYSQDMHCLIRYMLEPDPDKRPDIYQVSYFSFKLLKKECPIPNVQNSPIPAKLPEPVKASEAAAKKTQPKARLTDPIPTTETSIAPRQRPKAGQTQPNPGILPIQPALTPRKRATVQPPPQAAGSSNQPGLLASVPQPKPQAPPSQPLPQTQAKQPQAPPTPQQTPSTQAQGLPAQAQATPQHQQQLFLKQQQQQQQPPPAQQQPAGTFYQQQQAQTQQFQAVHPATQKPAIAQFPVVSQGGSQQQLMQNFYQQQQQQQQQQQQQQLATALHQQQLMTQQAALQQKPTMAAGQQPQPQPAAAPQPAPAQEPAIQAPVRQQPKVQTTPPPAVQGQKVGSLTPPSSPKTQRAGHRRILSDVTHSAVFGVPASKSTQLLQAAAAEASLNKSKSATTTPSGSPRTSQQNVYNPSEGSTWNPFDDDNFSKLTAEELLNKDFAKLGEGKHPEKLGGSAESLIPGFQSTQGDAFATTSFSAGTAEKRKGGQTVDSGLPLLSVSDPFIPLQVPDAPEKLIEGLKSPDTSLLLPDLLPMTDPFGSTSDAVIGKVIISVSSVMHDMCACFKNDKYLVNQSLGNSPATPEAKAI

IC50 [nM] | Compound
≤ 100 | COc1ccc(-c2cnn3ccc(N4CC[C@H](N(C)C(=O)OC(C)C)C4)nc23)c(OC)n1 [(S)-isopropyl (1-(3-(2,6-dimethoxypyridin-3-yl)pyrazolo[1,5-a]pyrimidin-5-yl)pyrrolidin-3-yl)(methyl)carbamate]
≤ 10 | COc1ncc(C)cc1-c1cnn2ccc(N3CC[C@H](N(C)C(=O)OC(C)C)C3)nc12 [(S)-isopropyl (1-(3-(2-methoxy-5-methylpyridin-3-yl)pyrazolo[1,5-a]pyrimidin-5-yl)pyrrolidin-3-yl)(methyl)carbamate]
≤ 100 | COc1ncc(F)cc1-c1cnn2ccc(N3CC[C@H](N(C)C(=O)OC(C)C)C3)nc12 [(S)-isopropyl (1-(3-(5-fluoro-2-methoxypyridin-3-yl)pyrazolo[1,5-a]pyrimidin-5-yl)pyrrolidin-3-yl)(methyl)carbamate]
≤ 1000 | CC(C)OC(=O)N(C)[C@H]1CCN(c2ccn3ncc(-c4ccccn4)c3n2)C1 [(S)-isopropyl methyl(1-(3-(pyridin-2-yl)pyrazolo[1,5-a]pyrimidin-5-yl)pyrrolidin-3-yl)carbamate]
≤ 10 | CCc1ccccc1-c1cnn2ccc(NC[C@@H]3CCCN3C(=O)OC(C)(C)C)nc12 [(S)-tert-butyl 2-(((3-(2-ethylphenyl)pyrazolo[1,5-a]pyrimidin-5-yl)amino)methyl)pyrrolidine-1-carboxylate]
≤ 10 | CC(C)(C)OC(=O)N1CCC[C@H]1CNc1ccn2ncc(-c3ccc(C(N)=O)cc3)c2n1 [(S)-tert-butyl 2-(((3-(4-carbamoylphenyl)pyrazolo[1,5-a]pyrimidin-5-yl)amino)methyl)pyrrolidine-1-carboxylate]
≤ 10 | CC(C)(C)OC(=O)N1CCC[C@H]1CNc1ccn2ncc(C(F)(F)F)c2n1 [(S)-tert-butyl 2-(((3-(trifluoromethyl)pyrazolo[1,5-a]pyrimidin-5-yl)amino)methyl)pyrrolidine-1-carboxylate]
≤ 10 | CC(C)(C)OC(=O)N1CCC[C@H]1CNc1ccn2ncc(-c3ccccc3)c2n1 [(S)-tert-butyl 2-(((3-phenylpyrazolo[1,5-a]pyrimidin-5-yl)amino)methyl)pyrrolidine-1-carboxylate]
≤ 1000 | CN(C(=O)OC(C)(C)C)[C@H]1CCN(c2ccn3ncc(-c4ccccn4)c3n2)C1 [(S)-tert-butyl methyl(1-(3-(pyridin-2-yl)pyrazolo[1,5-a]pyrimidin-5-yl)pyrrolidin-3-yl)carbamate]
≤ 100 | CCCC(=O)Nc1ccn2ncc(-c3cccnc3OC)c2n1 [N-(3-(2-methoxypyridin-3-yl)pyrazolo[1,5-a]pyrimidin-5-yl)butyramide]
≤ 10 | CCOC(=O)N1CCN(c2ccn3ncc(-c4ccc(OC)nc4OC)c3n2)CC1 [ethyl 4-(3-(2,6-dimethoxypyridin-3-yl)pyrazolo[1,5-a]pyrimidin-5-yl)piperazine-1-carboxylate]
≤ 10 | CCOC(=O)N1CCN(c2ccn3ncc(-c4cc(F)ccc4OC)c3n2)CC1 [ethyl 4-(3-(5-fluoro-2-methoxyphenyl)pyrazolo[1,5-a]pyrimidin-5-yl)piperazine-1-carboxylate]
≤ 1000 | COc1ncccc1-c1cnn2ccc(N3CCN(C(=O)OC(C)C)C3=O)nc12 [isopropyl 3-(3-(2-methoxypyridin-3-yl)pyrazolo[1,5-a]pyrimidin-5-yl)-2-oxoimidazolidine-1-carboxylate]
≤ 10 | Cc1ccc(-c2cnn3ccc(N4CCN(C(=O)OC(C)C)CC4)nc23)c(=O)n1C [isopropyl 4-(3-(1,6-dimethyl-2-oxo-1,2-dihydropyridin-3-yl)pyrazolo[1,5-a]pyrimidin-5-yl)piperazine-1-carboxylate]
≤ 10 | CC(C)OC(=O)N1CCN(c2ccn3ncc(-c4cccn(C)c4=O)c3n2)CC1 [isopropyl 4-(3-(1-methyl-2-oxo-1,2-dihydropyridin-3-yl)pyrazolo[1,5-a]pyrimidin-5-yl)piperazine-1-carboxylate]
≤ 100 | CC(C)OC(=O)N1CCN(c2ccn3ncc(-c4cccc5[nH]cnc45)c3n2)CC1 [isopropyl 4-(3-(1H-benzo[d]imidazol-4-yl)pyrazolo[1,5-a]pyrimidin-5-yl)piperazine-1-carboxylate]

IC50 [nM] | Compound
≤ 100 | CC(C)OC(=O)N1CCN(c2ccn3ncc(-c4cccnc4OCCN(C)C)c3n2)CC1 [isopropyl 4-(3-(2-(2-(dimethylamino)ethoxy)pyridin-3-yl)pyrazolo[1,5-a]pyrimidin-5-yl)piperazine-1-carboxylate]
≤ 100 | COCCOc1ccccc1-c1cnn2ccc(N3CCN(C(=O)OC(C)C)CC3)nc12 [isopropyl 4-(3-(2-(2-methoxyethoxy)phenyl)pyrazolo[1,5-a]pyrimidin-5-yl)piperazine-1-carboxylate]
≤ 100 | COCCOc1ncccc1-c1cnn2ccc(N3CCN(C(=O)OC(C)C)CC3)nc12 [isopropyl 4-(3-(2-(2-methoxyethoxy)pyridin-3-yl)pyrazolo[1,5-a]pyrimidin-5-yl)piperazine-1-carboxylate]
≤ 1000 | COCc1ccccc1-c1cnn2ccc(N3CCN(C(=O)OC(C)C)CC3)nc12 [isopropyl 4-(3-(2-(methoxymethyl)phenyl)pyrazolo[1,5-a]pyrimidin-5-yl)piperazine-1-carboxylate]
≤ 100 | CSc1ncccc1-c1cnn2ccc(N3CCN(C(=O)OC(C)C)CC3)nc12 [isopropyl 4-(3-(2-(methylthio)pyridin-3-yl)pyrazolo[1,5-a]pyrimidin-5-yl)piperazine-1-carboxylate]
≤ 100 | CC(C)OC(=O)N1CCN(c2ccn3ncc(-c4cccnc4N)c3n2)CC1 [isopropyl 4-(3-(2-aminopyridin-3-yl)pyrazolo[1,5-a]pyrimidin-5-yl)piperazine-1-carboxylate]
≤ 10 | CCOc1ncccc1-c1cnn2ccc(N3CCN(C(=O)OC(C)C)CC3)nc12 [isopropyl 4-(3-(2-ethoxypyridin-3-yl)pyrazolo[1,5-a]pyrimidin-5-yl)piperazine-1-carboxylate]
≤ 100 | COc1ccc(-c2cnn3ccc(N4CCN(C(=O)OC(C)C)CC4)nc23)c(F)n1 [isopropyl 4-(3-(2-fluoro-6-methoxypyridin-3-yl)pyrazolo[1,5-a]pyrimidin-5-yl)piperazine-1-carboxylate]
≤ 10 | CC(C)OC(=O)N1CCN(c2ccn3ncc(-c4cccnc4F)c3n2)CC1 [isopropyl 4-(3-(2-fluoropyridin-3-yl)pyrazolo[1,5-a]pyrimidin-5-yl)piperazine-1-carboxylate]
≤ 10 | COc1nc(C)ccc1-c1cnn2ccc(N3CCN(C(=O)OC(C)C)CC3)nc12 [isopropyl 4-(3-(2-methoxy-6-methylpyridin-3-yl)pyrazolo[1,5-a]pyrimidin-5-yl)piperazine-1-carboxylate]
≤ 10 | COc1ccccc1-c1cnn2ccc(N3CCN(C(=O)OC(C)C)CC3)nc12 [isopropyl 4-(3-(2-methoxyphenyl)pyrazolo[1,5-a]pyrimidin-5-yl)piperazine-1-carboxylate]
≤ 100 | COc1cc(-c2cnn3ccc(N4CCN(C(=O)OC(C)C)CC4)nc23)ccn1 [isopropyl 4-(3-(2-methoxypyridin-4-yl)pyrazolo[1,5-a]pyrimidin-5-yl)piperazine-1-carboxylate]
≤ 100 | Cc1ncccc1-c1cnn2ccc(N3CCN(C(=O)OC(C)C)CC3)nc12 [isopropyl 4-(3-(2-methylpyridin-3-yl)pyrazolo[1,5-a]pyrimidin-5-yl)piperazine-1-carboxylate]
≤ 100 | COc1c(F)cccc1-c1cnn2ccc(N3CCN(C(=O)OC(C)C)CC3)nc12 [isopropyl 4-(3-(3-fluoro-2-methoxyphenyl)pyrazolo[1,5-a]pyrimidin-5-yl)piperazine-1-carboxylate]
≤ 100 | Cc1ccc(-c2cnn3ccc(N4CCN(C(=O)OC(C)C)CC4)nc23)cc1F [isopropyl 4-(3-(3-fluoro-4-methylphenyl)pyrazolo[1,5-a]pyrimidin-5-yl)piperazine-1-carboxylate]

Compound | IC50 [nM]
COc1nc(C)ccc1-c1cnn2ccc(NCCOC(C)(C)C)nc12 [N-(2-(tert-butoxy)ethyl)-3-(2-methoxy-6-methylpyridin-3-yl)pyrazolo[1,5-a]pyrimidin-5-amine] | ≤ 100
COc1ncccc1-c1cnn2ccc(NCCOC(C)(C)C)nc12 [N-(2-(tert-butoxy)ethyl)-3-(2-methoxypyridin-3-yl)pyrazolo[1,5-a]pyrimidin-5-amine] | ≤ 10
COc1nc(C)ccc1-c1cnn2ccc(N(C)CCCOC(C)(C)C)nc12 [N-(3-(tert-butoxy)propyl)-3-(2-methoxy-6-methylpyridin-3-yl)-N-methylpyrazolo[1,5-a]pyrimidin-5-amine] | ≤ 100
COc1nc(C)ccc1-c1cnn2ccc(NCCCOC(C)(C)C)nc12 [N-(3-(tert-butoxy)propyl)-3-(2-methoxy-6-methylpyridin-3-yl)pyrazolo[1,5-a]pyrimidin-5-amine] | ≤ 10
COc1ncccc1-c1cnn2ccc(N(C)CCCOC(C)(C)C)nc12 [N-(3-(tert-butoxy)propyl)-3-(2-methoxypyridin-3-yl)-N-methylpyrazolo[1,5-a]pyrimidin-5-amine] | ≤ 100
